Measured values from patent US8759318B2, “Phosphoramidate derivatives of guanosine nucleoside compounds for treatment of viral infections” (Inhibitex, Inc., priority 2009, dated 2014).

Experiments:
[1] = tested on: HCV replicon (Genotype 1b); assay: Luciferase genotype 1b replicon potency assay; conditions: Hepatitis C virus, GETYPE1B, read-out: IC50 μM, HCV genotype 1b luciferase replicon, Renilla luciferase reporter
in vitro = conditions: human

Compound	IC50 [1] [µM]	CC50 (in vitro) [µM]
COc1nc(N)nc2c1ncn2C1O[C@H](CO[P@](=O)(N[C@@H](C)C(=O)OCC(C)(C)C)Oc2cccc3ccccc23)[C@@H](O)[C@@]1(C)O (single isomer, unassigned) [Example 22]	0.019	6
COc1nc(N)nc2c1ncn2C1O[C@H](COP(=O)(N[C@@H](C)C(=O)OCc2ccc(F)cc2F)Oc2cccc3ccccc23)[C@@H](O)[C@@]1(C)O (stereo partly drawn) [Example 14, (2S)-2,4-difluorobenzyl 2-((((2R,3R,4R)-5-(2-amino-6-methoxy-9H-purin-9-yl)-3,4-dihydroxy-4-methyltetrahydrofuran-2-yl)methoxy)(naphthalen-1-yloxy)phosphorylamino)propanoate]	0.04	15
COc1nc(N)nc2c1ncn2C1O[C@H](COP(=O)(N[C@@H](C)C(=O)O[C@@H](C)c2ccccc2)Oc2cccc3ccccc23)[C@@H](O)[C@@]1(C)O (stereo partly drawn) [Example 15]	0.032	12
COc1nc(N)nc2c1ncn2C1O[C@H](COP(=O)(N[C@@H](C)C(=O)OC2Cc3ccccc3C2)Oc2cccc3ccccc23)[C@@H](O)[C@@]1(C)O (stereo partly drawn) [Example 16, (2S)-2,3-dihydro-1H-inden-2-yl 2-((((2R,3R,4R)-5-(2-amino-6-methoxy-9H-purin-9-yl)-3,4-dihydroxy-4-methyltetrahydrofuran-2-yl)methoxy) (naphthalen-1-yloxy)phosphorylamino)propanoate]	0.027	11
CCCOC(=O)[C@H](C)NP(=O)(OC[C@H]1OC(n2cnc3c(OC)nc(N)nc32)[C@](C)(O)[C@@H]1O)Oc1cccc2ccccc12 (stereo partly drawn) [Example 17, (2S)-propyl 2-((((2R,3R,4R)-5-(2-amino-6-methoxy-9H-purin-9-yl)-3,4-dihydroxy-4-methyltetrahydrofuran-2-yl)methoxy)(naphthalen-1-yloxy)phosphorylamino)propanoate]	0.029	12
COc1nc(N)nc2c1ncn2C1O[C@H](COP(=O)(N[C@@H](C)C(=O)OCCC(C)(C)C)Oc2cccc3ccccc23)[C@@H](O)[C@@]1(C)O (stereo partly drawn) [Example 18, (2S)-3,3-dimethylbutyl 2-((((2R,3R,4R)-5-(2-amino-6-methoxy-9H-purin-9-yl)-3,4-dihydroxy-4-methyltetrahydrofuran-2-yl)methoxy)(naphthalen-1-yloxy)phosphorylamino)propanoate]	0.013	7.6
COc1nc(N)nc2c1ncn2C1O[C@H](COP(=O)(N[C@@H](C)C(=O)OCC(C)C)Oc2cccc3ccccc23)[C@@H](O)[C@@]1(C)O (stereo partly drawn) [Example 19, (2S)-isobutyl 2-((((2R,3R,4R)-5-(2-amino-6-methoxy-9H-purin-9-yl)-3,4-dihydroxy-4-methyltetrahydrofuran-2-yl)methoxy)(naphthalen-1-yloxy)phosphorylamino)propanoate]	0.037	14
COc1nc(N)nc2c1ncn2C1O[C@H](COP(=O)(N[C@@H](CCSC)C(=O)OCc2ccccc2)Oc2cccc3ccccc23)[C@@H](O)[C@@]1(C)O (stereo partly drawn) [Example 58, (2S)-benzyl 2-((((2R,3R,4R)-5-(2-amino-6-methoxy-9H-purin-9-yl)-3,4-dihydroxy-4-methyltetrahydrofuran-2-yl)methoxy)(naphthalen-1-yloxy)phosphorylamino)-4-(methylthio)butanoate]	0.22	–
CCCOC(=O)[C@@H](NP(=O)(OC[C@H]1OC(n2cnc3c(OC)nc(N)nc32)[C@](C)(O)[C@@H]1O)Oc1cccc2ccccc12)c1ccccc1 (stereo partly drawn) [Example 65]	0.086	–
C[C@@]1(O)[C@H](O)[C@@H](CO)O[C@H]1n1cnc2c(NCCc3ccccc3)nc(N)nc21 [Example 86, (3R,4R,5R)-2-(2-amino-6-(phenethylamino)-9H-purin-9-yl)-5-(hydroxymethyl)-3-methyltetrahydrofuran-3,4-diol]	23.6	–
COc1nc(N)nc2c1ncn2C1O[C@H](COP(=O)(N[C@@H](C(=O)OCc2ccccc2)c2ccccc2)Oc2cccc3ccccc23)[C@@H](O)[C@@]1(C)O (stereo partly drawn) [compound 68]	–	50
